From ChEMBL document CHEMBL3046077, “Synthesis and theoretic calculations of benzoxazoles and docking studies of their interactions with triosephosphate isomerase” (Med Chem Res, 2013)
In brackets after ≈: the same amount, converted by molar mass. Activity calls are given as the source filed them. The rule behind the calls is not given here.

Columns and labels:
Type in all cases: functional, organism-based
[1] = system: Trypanosoma cruzi; experiment: Antitrypanosomal activity against trypomastigote form of Trypanosoma cruzi INC5 at 5 to 250 ug/ml after 24 hr by Neubauer counting method
[2] = system: Trypanosoma cruzi; experiment: Antitrypanosomal activity against trypomastigote form of Trypanosoma cruzi NINOA at 5 to 250 ug/ml after 24 hr by Neubauer counting method
[3] = system: Trypanosoma cruzi; experiment: Antitrypanosomal activity against trypomastigote form of Trypanosoma cruzi INC5 after 24 hr by Neubauer counting method; conditions: INC5, 24 h
[4] = system: Trypanosoma cruzi; experiment: Antitrypanosomal activity against trypomastigote form of Trypanosoma cruzi NINOA after 24 hr by Neubauer counting method

Structure (SMILES) | Activity [1] | Activity [2] | IC50 [3] | IC50 [4]
O=C(O)/C=C/c1nc2ccccc2o1 | Active | Active |  | 
O=C(Cn1ccnc1[N+](=O)[O-])NCc1ccccc1 [BENZNIDAZOLE] |  |  | 205 µg/mL (≈ 786 µM) | 117 µg/mL (≈ 448 µM)
Cc1ccc2nc(/C=C/C(=O)O)oc2c1 |  |  | 421 µg/mL (≈ 2070 µM) | 266 µg/mL (≈ 1310 µM)
